Counter-ions that a name gives are not always drawn.
Assay: In vitro color change (ΔE*) of adjuvant plus dihydroxyacetone formulations on synthetic skin
Conditions: for ΔE* at 5.5 Hours / ΔE* at 29 Hours / ΔE* at 53 Hours: adjuvant at molar equivalent of 1% glycine with 2.5% dihydroxyacetone, pH 3.5, 5 μl/cm^2, 35° C. and 40% RH; for ΔE* at 5 hours / ΔE* at 21 hours / ΔE* at 46 hours: Example 4: total adjuvant at molar equivalent of 1% glycine, dihydroxyacetone 2.5%; for ΔE* at 5 hours: pH 3.5, 5 hours; for ΔE* at 21 hours: pH 3.5, 21 hours; for ΔE* at 46 hours: pH 3.5, 46 hours
Procedure: Commercially available Vitro-Skin® (synthetic skin) was used as the substrate and pH of the adjuvant and dihydroxyacetone formulations were maintained at 3.5, adjusted with citric acid.
The synthetic skin was pre-hydrated at 95% Relative Humidity (RH) for about 24 hours and then treated with formulations at a dosage of 5 μl/cm^2. The treated synthetic skin was stored at 35° C. and 40% RH for certain time frames, not exceeding 53 hours. Color development was monitored periodically after treatment using a HunterLab Labscan XE colorimeter. ΔE* is defined as √[(ΔL*)^2+(Δa+)^2+(Δb*)^2] where ΔL* is lightness change, Δa* is the change in +red/−green, Δb* is the change in […] and further where smaller ΔE* indicates less color change.

Row | Compound | ΔE* at 5.5 Hours | ΔE* at 29 Hours | ΔE* at 53 Hours | ΔE* at 5 hours | ΔE* at 21 hours | ΔE* at 46 hours
1 | NCCS(=O)O [Hypotaurine] | 8.0 | 21.0 | 26.0 |  |  | 
2 | CSCCN [2-Methylthio-Ethylamine] | 22.0 | 32.0 | 36.0 |  |  | 
3 | NCCS(=O)(=O)O [Taurine] | 17.0 | 33.0 | 36.0 | 9 | 26 | 28
4 | NCCOS(=O)(=O)O [2-Aminoethyl Hydrogen Sulfate] | 20.0 | 35.0 | 39.0 | 15 | 25 | 27
5 | NCC(=O)O [Glycine, reference compound] | 15.5 | 33.0 | 37.0 |  |  | 
